Laboratory results published in patent US20120225123A1, “Use of Synergistic Combinations of an Avermectin and an Antineoplastic Compounds for the Treatment of Hematological Malignancies” (UNIVERSITY HEALTH NETWORK, priority 2009, published 2012).

Columns and labels:
OCI-AML2 cells = assay: Intracellular chloride (SPQ) and cell size (forward light scatter), OCI-AML2; assay type: cell-based, human
Protocol: Intracellular chloride concentration was measured using a fluorescent indicator for chloride, SPQ as previously described.^16 Upon binding halide ions like chloride, SPQ is quenched resulting in a decrease in fluorescence without a shift in wavelength. […] After 15 minutes of incubation with SPQ, cells were diluted 15:1 in HBSS and centrifuged. The supernatant was removed, cells were resuspended in 200 μl of fresh HBSS and incubated for 15 minutes in 37° C. to allow recovery from the hypotonic shock. Cells were then stained with propidium iodide and SPQ fluorescence in the PI negative cells was determined using an LSR-II flow cytometer (Beckton Dickonson, San Jose, Calif.) (excitation 351 nm, emission 485 nm). In parallel, changes in cell size were determined by measuring forward light scatter by flow cytometry. Results were analyzed with FlowJo version 8.8 (TreeStar, Ashland, Oreg.).

[1] = system: U937 and TEX leukemia cells; primary AML cells; assay: Reactive oxygen species, Carboxy-H2DCFDA staining, sensitive cells; assay type: cell-based, human
[2] = system: OCI-AML2 subcutaneous xenografts; assay: OCI-AML2 xenograft, intraperitoneal ivermectin: Tunel staining and STAT1 Q-RT-PCR; assay type: in vivo, mouse
Protocol: In order to measure gene expression changes in vivo, OCI-AML2 cells (2.5×10^5) were injected subcutaneously into the flanks of sub-lethally irradiated NOD/SCID mice. Once tumors were established, mice were treated with ivermectin (7 mg/kg) or vehicle control intraperitoneally for 5 days. After treatment, mice were sacrificed, and tumors harvested. mRNA was extracted and changes in STAT expression were measured by quantitative RT-PCR (QRT-PCR). Evidence of apoptosis was measured by Tunel staining and immunohistochemistry (Pathology Research Program, University Health Network, Toronto, Canada).
Changes in ROS production are indicative of a biological response to ivermectin, but are very difficult to measure in the context of a clinical trial. Therefore, to identify alterations in gene expression that are a result of ROS production and could be used as biomarkers in the context of a clinical trial, gene expression profiling analysis (using Affymetrix HG U133 Plus 2.0 arrays) RNA derived from OCI-AML2 cells treated with ivermectin for 30 hr and 40 hr was undertaken. One hundred and fifty genes were deregulated >4-fold at both time points (33 under-expressed; 117 over-expressed) compared to control. […] Changes in STAT1 expression in tumors from a leukemia xenograft model were also evaluated. […] After treatment, tumors were harvested, mRNA extracted, and STAT1 expression measured by Q-RT PCR.

primary AML samples = assay: Clonogenic (methylcellulose colony forming) assay, primary AML; assay type: cell-based, human; conditions: ivermectin 6 μM; in 3/6 primary AML samples
Protocol: To assess clonogenic growth, primary AML cells or granulocyte colony-stimulating factor (G-CSF) mobilized PBSCs (4×10^5/mL) were treated with IVM or buffer control for 24 hours. After treatment, cells were washed and 10^5 cell/mL were plated in duplicate in MethoCult GF H4434 medium (StemCell Technologies, Vancouver, BC) containing 1% methycellulose in IMDM, 30% FCS, 1% bovine serum albumin, 3 U/mL of recombinant human erythropoietin, 10^−4 M of 2-mercaptoethanol, 2 mM of L-glutamine, 50 ng/mL of recombinant human stem cell factor, 10 ng/mL of GM-CSF, and 10 ng/mL of rh IL-3. Alternatively, primary cells were plated directly into MethoCult GF H4434 medium with ivermectin. Seven days (AML samples) or 14 days (normal PBCS) after plating, the number of colonies containing 10 or more cells for AML or over 100 cells for normal samples was counted as previously described.^14
Ivermectin was also evaluated in clonogenic assays in primary normal hematopoietic and AML cells. Ivermectin (6 μM) had minimal effects on the clonogenic growth of normal hematopoetic cells (n=3) with <15% reduction in clonogenic growth. In contrast, ivermectin reduced clonogenic growth by ≧40% in 3/6 primary AML samples (FIG. 1D). Similar effects were noted when primary cells were directly plated into clonogenic assays with ivermectin (FIG. 1G).

[3] = system: primary normal hematopoietic cells (PBSC); assay: Cell viability by Annexin V and PI staining, normal hematopoietic cells; assay type: cell-based, human; conditions: 48 hours, concentrations up to 20 μM
Protocol: Primary human acute myeloid leukemia (AML) samples were isolated from fresh bone marrow and peripheral blood samples of consenting patients. Similarly, primary normal hematopoietic cells were obtained from healthy consenting volunteers donating peripheral blood mononuclear cells
(PBSCs) for stem cell transplantation. The mononuclear cells were isolated from the samples by Ficoll density centrifugation. Primary cells were cultured at 37° C. in IMDM supplemented with 20% FCS and appropriate antibiotics.
Cell growth and viability was assessed by the MTS assay (Promega, Madison, Wis.) according to the manufacturer's instructions and as previously described.^12 Cell death was measured by Annexin V-fluoroscein isothiocyanate (FITC) and Propidium Iodide (PI; Biovision Research Products, Mountain View, Calif.) staining and flow cytometry according to the manufacturer's instructions and as previously described.^13 To identify CD34+ cells, a normal PBSC sample was co-stained with PE-anti-CD34+ (Beckman Coulter, Marseille France), and APC-anti-CD45 (Becton Dickenson, San Jose Calif.).
Given the cytotoxicity of IVM toward leukemia cell lines, its cytotoxicity was compared to primary normal hematopoietic cells and acute myeloid leukemia (AML) patient samples (n=4 intermediate risk cytogenetics, n=1 good risk cytogenetics, and n=1 unknown cytogenetics). […]

mice = conditions: oral; cited from earlier work

ivermectin
intracellular chloride, SPQ fluorescence (OCI-AML2 cells; 10 μM IVM, 2 hours): decreased SPQ fluorescence
cell size (OCI-AML2 cells; 2 hours of treatment, flow cytometry): caused an increase in cell size
ROS generation ([1]; U937 and TEX cells, 2 hours after treatment): demonstrated increased ROS generation
ROS generation ([1]; primary AML cells): demonstrated increased ROS generation
apoptosis in the subcutaneous tumor, Tunel staining ([2]; 7 mg/kg intraperitoneally for 5 days): increased apoptosis
STAT1 mRNA in tumors vs vehicle control ([2]; ivermectin for 5 days, Q-RT PCR): increased in two of three tested tumors
reduction in clonogenic growth (primary AML samples): ≥ 40%
induction of cell death [3]: did not induce cell death
LD50 (mice): 28 to 30 mg/kg
